Measured values published in patent US8362018B2, “Substituted imidazo[1,2-a]pyrazine compounds useful for the treatment of viral infections” (Biofocus DPI, Ltd., priority 2007, dated 2013).

Tests used:
HCV replicon = assay: anti-viral assay (EC50), Table 13; assay type: cell-based; conditions: Hepatitis C virus, anti-viral assays
Description: The ability of a compound to inhibit HCV replication can be measured in vitro or using animal models using models and assays well known to those of skill in the art (e.g. Pietschmann et al, Clin Liver Dis. 7(1)c23-43, 2003). In vitro techniques for measuring the ability of a compound to inhibit HCV replication involve using HCV or an HCV replicon. Because HCV is difficult to grow in culture, particular in vitro techniques employ an HCV replicon.
An HCV replicon is an RNA molecule able to autonomously replicate in a cultured cell, such as Huh7. The HCV replicon expresses the HCV derived components of the replication machinery and contains cis-elements required for replication in a cultured cell. […]

[1] = cytotoxicity measurement (CC50), Table 13; assay type: cell-based; conditions: human, Huh7 cells

SMILES	EC50 (HCV replicon)	CC50 [1]
COc1ccc(-c2cnc3c(NCCCn4ccnc4)nccn23)cc1OC [Compound 30]	> 20 µM	> 35 µM
Cc1cn2c(-c3ccc(O)c(F)c3)cnc2c(NCc2ccc(S(N)(=O)=O)cc2)n1 [Compound 111]	< 1 µM	> 35 µM
Cc1cc(O)ccc1-c1cnc2c(NCc3ccc(S(N)(=O)=O)cc3)nccn12 [Compound 33]	1 to 20 µM	> 35 µM
Oc1ccc(-c2cnc3c(NCc4cccc(Cl)c4)nccn23)cc1 [Compound 99]	1 to 20 µM	< 35 µM
Cc1cnc(NCc2ccc(S(N)(=O)=O)cc2)c2ncc(-c3ccc(O)cc3)n12 [Compound 108, 4-{[3-(4-Hydroxy-phenyl)-5-methyl-imidazo[1,2-a]pyrazin-8-ylamino]-methyl}-benzenesulfonamide]	< 1 µM	< 35 µM
COc1ccc2cc(-c3cnc4c(NCc5ccc(S(N)(=O)=O)cc5)nccn34)ccc2c1 [Compound 55]	1 to 20 µM	< 35 µM
NC(=O)c1ccc(CNc2nccn3c(-c4ccc(O)cc4)cnc23)cc1 [Compound 48]	1 to 20 µM	> 35 µM
CCNS(=O)(=O)c1ccc(CNc2nccn3c(-c4ccc(OC)cc4)cnc23)cc1 [Compound 101]	1 to 20 µM	> 35 µM
Cc1nc2c(NCc3ccc(S(N)(=O)=O)cc3)nccn2c1-c1ccc(O)c([N+](=O)[O-])c1 [Compound 107]	1 to 20 µM	> 35 µM
NS(=O)(=O)c1cccc(CNc2nccn3c(-c4ccc(O)c(F)c4)cnc23)c1 [Compound 57]	< 1 µM	> 35 µM
NC(=O)c1cc(-c2cnc3c(NCc4ccc(S(N)(=O)=O)cc4)nccn23)ccc1O [Compound 94, 2-Hydroxy-5-[8-(4-sulfamoyl-benzylamino)-imidazo[1,2-a]pyrazin-3-yl]-benzamide]	1 to 20 µM	> 35 µM
NS(=O)(=O)c1ccc(CNc2nccn3c(-c4ccc(CO)o4)cnc23)cc1 [Compound 46]	1 to 20 µM	> 35 µM
Oc1cccc(-c2cnc3c(NCc4cccnc4)nccn23)c1 [Compound 76]	1 to 20 µM	< 35 µM
OCc1ccc(-c2cnc3c(NCc4ccc5c(c4)OCO5)nccn23)cc1 [Compound 81]	1 to 20 µM	< 35 µM
Oc1ccc(-c2cnc3c(NCc4ccc5c(c4)OCO5)nccn23)cc1 [Compound 61]	1 to 20 µM	< 35 µM
COc1ccc(-c2cnc3c(NCc4ccc(S(C)(=O)=O)cc4)nccn23)cc1OC [Compound 19]	1 to 20 µM	> 35 µM
COc1cc(-c2cnc3c(NCc4ccc(S(N)(=O)=O)cc4)nc(C)cn23)ccc1O [Compound 112]	< 1 µM	< 35 µM
COc1cc(CNc2nccn3c(-c4ccc(O)cc4)cnc23)cc(OC)c1OC [Compound 60]	1 to 20 µM	< 35 µM
CC(=O)Nc1cccc(-c2cnc3c(NCc4ccc(S(N)(=O)=O)cc4)nccn23)c1 [Compound 87]	1 to 20 µM	< 35 µM
NS(=O)(=O)c1ccc(CNc2nccn3c(-c4ccc(O)c([N+](=O)[O-])c4)cnc23)cc1 [Compound 54]	1 to 20 µM	> 35 µM
Cc1cc(-c2cnc3c(NCc4ccc(S(N)(=O)=O)cc4)nccn23)ccc1O [Compound 88, 4-{[3-(4-Hydroxy-3-methyl-phenyl)-imidazo[1,2-a]pyrazin-8-ylamino]-methyl}-benzenesulfonamide]	< 1 µM	> 35 µM
CNS(=O)(=O)c1ccc(CNc2nccn3c(-c4ccc(O)cc4)cnc23)cc1 [Compound 103]	1 to 20 µM	> 35 µM
NS(=O)(=O)c1ccc(CNc2nccn3c(-c4ccc(CO)s4)cnc23)cc1 [Compound 45]	1 to 20 µM	> 35 µM
COc1cc(-c2cnc3c(NCc4ccc(S(N)(=O)=O)cc4)ncc(C)n23)ccc1O [Compound 109]	< 1 µM	< 35 µM
